Publication PMC6383986, “Fragment-Based Covalent Ligand Screening Enables Rapid Discovery of Inhibitors for the RBR E3 Ubiquitin Ligase HOIP” (Journal of the American Chemical Society, 2019)

Columns and labels:
Assay in all cases: ABPP quantitative MS, MCF7
Format in all cases: cell-based
Details in all cases: 30 μM (11a) 7 h vs DMSO, then 3 μM (15) 2 h
ALDH6A1 = biological target: T1, ALDH6A1 (Homo sapiens, UniProt Q02252)
T1 construct: endogenous in cells; host or cells: HEK293T (A21); MCF7 (A27)
T1 sequence (Q02252 34-535): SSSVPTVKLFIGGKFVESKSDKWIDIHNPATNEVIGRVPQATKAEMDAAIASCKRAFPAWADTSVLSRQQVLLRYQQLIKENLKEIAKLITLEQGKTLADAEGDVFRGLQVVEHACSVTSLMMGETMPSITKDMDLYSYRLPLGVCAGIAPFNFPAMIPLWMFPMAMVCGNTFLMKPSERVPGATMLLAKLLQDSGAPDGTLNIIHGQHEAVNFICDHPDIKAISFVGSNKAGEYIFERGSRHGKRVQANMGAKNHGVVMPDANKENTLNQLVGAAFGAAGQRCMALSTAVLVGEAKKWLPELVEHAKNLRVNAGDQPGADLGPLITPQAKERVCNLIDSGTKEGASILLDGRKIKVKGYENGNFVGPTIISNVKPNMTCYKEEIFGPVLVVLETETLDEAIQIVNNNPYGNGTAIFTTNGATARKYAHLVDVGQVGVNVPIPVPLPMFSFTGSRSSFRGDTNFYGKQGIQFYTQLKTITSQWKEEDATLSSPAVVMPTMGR
Method: (§1) control and cells treated with control compounds (11i) and (17) at 30 µM). HOIP RBR wild type […]
(§2) nm, indicating low to no labelling by (11a), and a dominant signal from the 800 channel (green).
(§3) C = HOIP RBR control (0.5 µg).
(§4) 5.2 Activity-based protein profiling – Enrichment and LC-MS
(§5) Cell culture and transfection, compound treatment, ha rvest and lysis
(§6) HEK293T cells were cultured and transfected as describ ed in section 4.8 above. MCF7 cells were seeded in 100 mm Petri dishes at 6 × 10^5 cells/dish and cultured overnight at 37 °C as described in section 4.8 above. Both cell types were treated with inhibitor (11a) (30 µM final concentration) or DMSO as described above, incubating for 7 h at 37 °C, followed by addition of clickable probe (15) (3 µM final concentration) and incubation for an additional 2 h. The cells were then harvested and lysed (50 mM Tris-HCl, pH 7.5, 1.5 mM MgCl2, 150 mM NaCl, 5% glycerol, 0.8% v/v IGEPAL-CA630, 25 mM NaF, 1 mM Na3VO4, complete protease inhibitor), and the protein concentration was determined by the BCA assay as described in section 4.7 above.
(§7) Enrichment of TCO-labelled proteins
(§8) Similar to a previously described protocol,22 tetrazine beads were generated by incubating high capacity neutravidin beads (500 µL; Thermo Scientific) with 0.1 µmol tetrazine-PEG4-biotin (Jena Bioscience) in PBS buffer over night at 4 °C, followed by blocking with 5 µL 100 mM biotin in DMSO for 30 minutes at 4 °C. The beads were washed 3× with buffer (50 mM Tris-HCl pH 7.4, 5% glycerol, 1.5 mM MgCl2, 150 mM NaCl, 1 mM Na3VO3, 5 mM NaF) supplemented with 0.4% IGEPAL CA-630 and adjusted to a 5% v/v slurry.
(§9) Lysate with a protein concentration of approx. 2 mg/mL (500 µL) were added to the TCO beads (35 µL) on a 96-well filter plate (Porvair, Dunn #240002) and incubated at 4°C for 2 h. After incubation, beads were washed using a vacuum manifold with 5 mL wash buffer 1 (WB1) (50 mM […]
(§10) (50 mM HEPES pH 8.5, 2 M urea), and 5 mL WB4 (50 mM HEPES pH 8.5). Proteins were then eluted by on bead digestion: 60 µL elution buffer (50 mM HEPES pH 8.5, 5 mM Tris-(2-carboxyethyl)phosphine, 15 mM chloroacetamide, 0.004 µg LysC/ µL (Wako chemicals), 0.004 µg trypsin/µL (Promega)) were added to the washed beads and incubated over night at room temperature. Eluates were collected by centrifugation, beads incubated with an additional 60 µL WB4, eluted and both eluates were combined and lyophilized. […]
(§11) proportional to the number of ions; this measure is referred to as ion area.24 Spectra matching to peptides were filtered according to the following criteria: mascot ion score >15, signal-to-background of the precursor ion >4, and signal -to-interference >0.5. Fold-changes were corrected for isotope purity and adjusted for interference caused by co-eluting nearly isobaric peaks.25 Protein quantification was derived from individual spectra matching to distinct peptides by using a sum-based bootstrap algorithm; 95% confidence intervals were calculated for all protein fold-changes that were quantified with more than three spectra.23 Relative protein abundance s were generated on the basis of MS1 abundances .26 Briefly, XIC peaks were matched to identified peptides. […] These values were then summed, and the mean was calculated.
(§12) In cases where fewer than 3 sequences were associated, the mean was calculated using XIC intensities from either one or two sequences.
(§13) Proteins were filtered for >1 quantified spectra matches (qusm). Residual binding was calculated […]

DHX36 = biological target: T2, DHX36 (Homo sapiens, UniProt Q9H2U1)
T2 construct: endogenous in cells; host or cells: MCF7
T2 sequence (Q9H2U1 whole entry): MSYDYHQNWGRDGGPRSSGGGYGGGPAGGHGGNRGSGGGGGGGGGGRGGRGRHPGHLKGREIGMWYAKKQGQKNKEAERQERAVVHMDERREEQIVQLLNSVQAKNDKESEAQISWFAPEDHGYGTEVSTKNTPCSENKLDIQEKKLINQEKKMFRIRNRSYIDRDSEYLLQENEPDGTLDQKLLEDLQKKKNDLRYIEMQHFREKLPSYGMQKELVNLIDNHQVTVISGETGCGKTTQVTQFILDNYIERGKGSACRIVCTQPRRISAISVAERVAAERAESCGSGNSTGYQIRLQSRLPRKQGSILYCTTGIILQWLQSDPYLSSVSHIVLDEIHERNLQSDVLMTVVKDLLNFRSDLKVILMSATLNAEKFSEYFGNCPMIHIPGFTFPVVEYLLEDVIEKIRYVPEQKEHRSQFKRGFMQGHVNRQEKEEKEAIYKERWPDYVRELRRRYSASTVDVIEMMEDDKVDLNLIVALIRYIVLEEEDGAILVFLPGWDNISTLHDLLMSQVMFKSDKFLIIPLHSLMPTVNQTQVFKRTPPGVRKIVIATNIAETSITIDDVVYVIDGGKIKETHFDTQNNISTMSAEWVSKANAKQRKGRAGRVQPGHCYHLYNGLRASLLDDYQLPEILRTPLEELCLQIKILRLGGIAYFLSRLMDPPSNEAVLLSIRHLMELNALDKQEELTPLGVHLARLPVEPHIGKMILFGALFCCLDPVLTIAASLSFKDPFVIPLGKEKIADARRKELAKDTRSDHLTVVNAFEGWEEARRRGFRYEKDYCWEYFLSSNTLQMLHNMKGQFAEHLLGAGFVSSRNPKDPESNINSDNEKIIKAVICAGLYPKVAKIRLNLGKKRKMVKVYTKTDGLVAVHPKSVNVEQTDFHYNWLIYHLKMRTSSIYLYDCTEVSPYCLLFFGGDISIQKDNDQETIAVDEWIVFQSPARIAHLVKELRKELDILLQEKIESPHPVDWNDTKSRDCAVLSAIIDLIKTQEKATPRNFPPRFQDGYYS
Method: as §1, §2, §3, §4, §5, §6, §7, §8, §9, §10, §11, §12, §13

GCLC = biological target: T3, GCLC (Homo sapiens, UniProt P48506)
T3 construct: endogenous in cells; host or cells: MCF7
T3 sequence (P48506 whole entry): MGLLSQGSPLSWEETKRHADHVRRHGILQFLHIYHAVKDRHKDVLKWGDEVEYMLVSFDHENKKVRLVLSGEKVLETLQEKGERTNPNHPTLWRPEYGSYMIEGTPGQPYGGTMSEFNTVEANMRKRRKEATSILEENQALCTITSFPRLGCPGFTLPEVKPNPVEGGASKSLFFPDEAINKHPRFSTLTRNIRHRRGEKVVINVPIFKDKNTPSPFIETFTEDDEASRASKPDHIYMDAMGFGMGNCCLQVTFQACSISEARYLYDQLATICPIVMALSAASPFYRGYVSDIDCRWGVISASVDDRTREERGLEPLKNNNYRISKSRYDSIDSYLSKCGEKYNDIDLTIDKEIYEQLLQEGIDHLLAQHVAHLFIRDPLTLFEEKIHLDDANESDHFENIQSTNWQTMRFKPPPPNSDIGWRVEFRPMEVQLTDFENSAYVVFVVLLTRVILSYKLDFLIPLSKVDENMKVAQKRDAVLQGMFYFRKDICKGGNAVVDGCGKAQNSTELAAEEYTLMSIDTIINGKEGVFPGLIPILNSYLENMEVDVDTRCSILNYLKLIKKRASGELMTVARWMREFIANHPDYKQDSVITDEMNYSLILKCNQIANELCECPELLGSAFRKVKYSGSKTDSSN
Method: as §1, §2, §3, §4, §5, §6, §7, §8, §9, §10, §11, §12, §13

SMG9 = biological target: T4, SMG9 (Homo sapiens, UniProt Q9H0W8)
T4 construct: endogenous in cells; host or cells: MCF7
T4 sequence (Q9H0W8 whole entry): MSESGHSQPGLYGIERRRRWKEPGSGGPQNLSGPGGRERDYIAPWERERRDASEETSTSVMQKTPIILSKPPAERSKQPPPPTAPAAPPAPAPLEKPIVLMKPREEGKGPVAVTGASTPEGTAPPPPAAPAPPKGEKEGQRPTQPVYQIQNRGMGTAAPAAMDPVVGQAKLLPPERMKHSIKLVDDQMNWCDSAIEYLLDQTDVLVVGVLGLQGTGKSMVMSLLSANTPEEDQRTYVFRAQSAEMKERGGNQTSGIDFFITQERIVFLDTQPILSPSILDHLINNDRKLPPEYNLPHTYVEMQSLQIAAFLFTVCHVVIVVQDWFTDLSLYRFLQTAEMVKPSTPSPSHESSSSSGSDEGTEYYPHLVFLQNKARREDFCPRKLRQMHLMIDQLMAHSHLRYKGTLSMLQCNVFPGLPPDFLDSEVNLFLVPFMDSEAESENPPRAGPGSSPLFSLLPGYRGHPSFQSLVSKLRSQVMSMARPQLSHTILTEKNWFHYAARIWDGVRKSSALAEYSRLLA
Method: as §1, §2, §3, §4, §5, §6, §7, §8, §9, §10, §11, §12, §13

SRBD1 = biological target: T5, SRBD1 (Homo sapiens, UniProt Q8N5C6)
T5 construct: endogenous in cells; host or cells: MCF7
T5 sequence (Q8N5C6 whole entry): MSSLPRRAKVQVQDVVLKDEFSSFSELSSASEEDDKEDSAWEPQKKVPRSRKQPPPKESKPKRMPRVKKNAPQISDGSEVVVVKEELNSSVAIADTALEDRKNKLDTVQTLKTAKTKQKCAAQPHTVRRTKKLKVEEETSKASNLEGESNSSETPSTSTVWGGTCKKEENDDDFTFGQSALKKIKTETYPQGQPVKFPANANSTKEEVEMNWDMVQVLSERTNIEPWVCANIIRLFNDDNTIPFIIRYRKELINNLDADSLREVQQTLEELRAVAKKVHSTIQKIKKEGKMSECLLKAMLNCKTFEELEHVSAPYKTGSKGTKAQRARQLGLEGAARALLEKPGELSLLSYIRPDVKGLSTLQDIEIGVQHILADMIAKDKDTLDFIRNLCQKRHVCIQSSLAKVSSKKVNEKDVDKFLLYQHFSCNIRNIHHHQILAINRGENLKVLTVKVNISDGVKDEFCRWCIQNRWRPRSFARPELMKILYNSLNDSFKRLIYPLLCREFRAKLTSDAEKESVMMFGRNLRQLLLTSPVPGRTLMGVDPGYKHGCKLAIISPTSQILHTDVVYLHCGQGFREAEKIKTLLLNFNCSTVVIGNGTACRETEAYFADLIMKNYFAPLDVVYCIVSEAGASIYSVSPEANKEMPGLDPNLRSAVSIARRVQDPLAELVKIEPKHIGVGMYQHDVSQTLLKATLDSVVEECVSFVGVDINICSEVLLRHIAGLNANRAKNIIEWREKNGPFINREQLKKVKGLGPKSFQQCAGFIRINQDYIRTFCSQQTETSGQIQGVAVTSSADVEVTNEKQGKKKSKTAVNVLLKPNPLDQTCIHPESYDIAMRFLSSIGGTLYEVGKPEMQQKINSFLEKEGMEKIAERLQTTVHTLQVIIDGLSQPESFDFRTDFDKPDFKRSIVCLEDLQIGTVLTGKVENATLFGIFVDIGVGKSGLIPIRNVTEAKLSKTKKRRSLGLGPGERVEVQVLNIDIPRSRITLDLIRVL
Method: as §1, §2, §3, §4, §5, §6, §7, §8, §9, §10, §11, §12, §13

ratio: mean ratio between control and competition samples, ALDH6A1 (ALDH6A1): -0.9838 log2
ratio: mean ratio between control and competition samples, DHX36 (DHX36): -0.8884 log2
ratio: mean ratio between control and competition samples, GCLC (GCLC): -0.8853 log2
ratio: mean ratio between control and competition samples, SMG9 (SMG9): -0.8383 log2
ratio: mean ratio between control and competition samples, SRBD1 (SRBD1): -0.7897 log2
SMILES: COC(=O)/C=C/CNC(=O)c1cc2c([nH]c1=O)CCCC2 [Compound 11a]
